What all share (format): cell-based
For test [1], the system named is NCI-H2122 human lung cancer cells. Nature of the test: CellTiter-Glo luminescent cell viability assay, NCI-H2122. To be noted: 72 hours. (In general: In ATP-based viability assays light output follows the ATP content of the culture.)
Test [2] relates to NCI-H1703 human lung squamous carcinoma cells. The test can be described thus: CellTiter-Glo luminescent cell viability assay, NCI-H1703. To be noted: 72 hours.
The test system of test [3] is DU-145 prostate cancer cells. The test can be described thus: CellTiter-Glo luminescent cell viability assay, DU-145. On the procedure: In example 1, CELLTITER-GLO was used to test etonogestrel against prostate cancer. DU-145 cells were handled as described above, and a DU-145 96-well cell culture plate was obtained. The complete medium for DU-145 cells was RPMI-1640 (a live product), Cat# A1049101, with a cells/well density of 4000. 2. The drug analyte etonogestrel was prepared and administered (200× final concentration): a) DMSO was used to dilute the analyte etonogestrel to 20 mM for use. 79 μL of the 20 mM analyte prepared in step a) was added to the first well in the first row of the dilution plate, and then 54 μL of DMSO solution was added to the second through ninth wells of the first row. 25 μL of solution was aspirated from the first to the second well, and after mixing well 25 μL of solution was aspirated from the second to the third well, and this was repeated until the 9th well in order to ensure that 3.16 dilution of the medication would be carried out one-by-one. b) 95 μl of cell-specific complete medium was added to the working plate, each medication to 9 wells. […] The final concentrations (μM) of the analyte drug in wells 2-10 in FIG. 1 are, in order: 100, 31.64557, 10.01442, 3.16912, 1.002886, 0.317369, 0.100433, 0.031783, 0.010058; a) Before testing, the DU-145 96-well drug screening plate described in 3 above was stabilized to room temperature for 20-30 minutes. c) 100 μl of CellTiter-Glo reagent (prepared as described in 1 above) was added to all drug screening plates and mixed evenly. d) It was thoroughly oscillated in a 96-well microplate oscillator for 2 minutes to allow the cells to undergo full lysis. e) It was stored away from light at room temperature for 15 minutes before carrying out luminescent signal detection to ensure signal stability. f) An EnSpire multi-function plate reader was used at […] to read the luminescent signals. g) Data was processed and analyzed.

One molecule from patent US10441591B2, “Applications for etonogestrel in preparing anti-prostate cancer products” (SHANGHAI JIAO TONG UNIVERSITY, priority 2015, dated 2019) can be followed below.

pEC50, pIC50: −log10 of the molar value.

For `C#C[C@]1(O)CC[C@H]2[C@@H]3CCC4=CC(=O)CC[C@@H]4[C@H]3C(=C)C[C@@]21CC` [etonogestrel], the negative logarithm of the IC50 (pIC50) in test [1] was not above 4.00; in test [2], not above 4.00; in test [3] (Homo sapiens, DU-145 cells, 72 hours, CellTiter-Glo) it was 4.80. For the same molecule, the “inhibitory effect on the proliferation of prostate cancer cells” value in test [3] (DU-145 compared with NCI-H1703 and NCI-H2122) is “specific inhibitory effect on the proliferation of prostate cancer cells”. In test [3] (Homo sapiens, DU-145 cells, FIG. 2 dose-response curve, 72 hours), this molecule had a pEC50 of 4.93.

A word on the pIC50: it is the negative decadic logarithm of the IC50, by convention in mol/L. High values mean a low IC50, low ones a high IC50. Broadly, the pEC50 is −log10 of the EC50, conventionally taken in molar units.
